Measurements taken from patent publication US20250011288A1 (BRISTOL-MYERS SQUIBB COMPANY, priority 2021, published 2025).

Target: T1, human RXFP1 (Homo sapiens, UniProt Q9HBX9)
T1 construct: expressed in transfected cells
T1 sequence (Q9HBX9 1-757): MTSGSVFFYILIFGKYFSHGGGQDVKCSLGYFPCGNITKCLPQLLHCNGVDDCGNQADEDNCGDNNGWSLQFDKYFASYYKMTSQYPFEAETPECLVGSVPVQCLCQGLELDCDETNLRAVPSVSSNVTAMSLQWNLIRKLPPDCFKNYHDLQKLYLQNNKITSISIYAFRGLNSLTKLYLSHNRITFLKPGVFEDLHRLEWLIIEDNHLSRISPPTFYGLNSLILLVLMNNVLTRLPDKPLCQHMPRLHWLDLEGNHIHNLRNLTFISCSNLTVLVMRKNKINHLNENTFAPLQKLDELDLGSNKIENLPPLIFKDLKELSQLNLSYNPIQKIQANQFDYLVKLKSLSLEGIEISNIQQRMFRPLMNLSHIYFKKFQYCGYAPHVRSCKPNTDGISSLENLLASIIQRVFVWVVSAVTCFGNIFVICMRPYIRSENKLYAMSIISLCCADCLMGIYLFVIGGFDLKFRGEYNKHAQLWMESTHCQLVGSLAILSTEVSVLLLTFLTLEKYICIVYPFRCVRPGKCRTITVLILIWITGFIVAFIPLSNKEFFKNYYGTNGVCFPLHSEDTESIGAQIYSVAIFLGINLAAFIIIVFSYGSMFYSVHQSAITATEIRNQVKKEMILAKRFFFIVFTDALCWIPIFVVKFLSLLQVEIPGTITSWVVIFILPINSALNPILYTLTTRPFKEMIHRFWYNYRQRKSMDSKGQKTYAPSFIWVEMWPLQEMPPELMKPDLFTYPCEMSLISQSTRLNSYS
Test: human RXFP1 (hRXFP1) HEK293 cAMP assay (HTRF)
Assay type: cell-based
Settings: HEK293 cells stably expressing human RXFP1, 30 min at room temperature
In short: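 Intracellular cAMP was quantified by HTRF after a 30 min room-temperature exposure of hRXFP1-HEK293 cells (1500/well) to compound at 0.010 nM–50 µM final, 2% DMSO. Buffer was HBSS with 20 mM HEPES, 0.05% BSA and 0.5 mM IBMX; values came from a 4-parameter logistic fit.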

Structure (SMILES) | EC50 [nM]
Cc1nc(O)c(C(=O)N[C@H]2[C@@H](C(=O)Nc3ccc(F)c(C(F)(F)F)c3)[C@H]3CC[C@@H]2/C3=C\C(F)(F)F)cc1-c1cccc(C(=O)O)c1 [Example 56, 3-(5-(((1R,2R,3S,4R,Z)-3-((4-fluoro-3-(trifluoromethyl)phenyl)carbamoyl)-7-(2,2,2-trifluoroethylidene)bicyclo[2.2.1]heptan-2-yl)carbamoyl)-6-hydroxy-2-methylpyridin-3-yl)benzoic acid] | 2800
COc1ncc(-c2ccc(C(=O)O)cc2)cc1C(=O)N[C@@H]1C2CCC(C2=C(C)C)[C@@H]1C(=O)Nc1ccc(F)c(C(F)(F)F)c1 (stereo partly drawn) [Example 20, 4-(5-{[(2R,3S)-3-{[4-fluoro-3-(trifluoromethyl)phenyl]carbamoyl}-7-(propan-2-ylidene)bicyclo[2.2.1]heptan-2-yl]carbamoyl}-6-methoxypyridin-3-yl)benzoic acid] | 250
CCCc1cnc(OC)c(C(=O)N[C@@H]2C3CCC(/C3=C/C(F)(F)F)[C@@H]2C(=O)Nc2ccc(F)c(C(F)(F)F)c2)c1 (stereo partly drawn) [Example 51, N-[(2R,3S,7Z)-3-{[4-fluoro-3-(trifluoromethyl)phenyl]carbamoyl}-7-(2,2,2-trifluoroethylidene)bicyclo[2.2.1]heptan-2-yl]-2-methoxy-5-propylpyridine-3-carboxamide] | 1300
COc1ncc(C2=NOC3CC(CO)CC23)cc1C(=O)N[C@@H]1C2CCC(/C2=C/C2CC2)[C@@H]1C(=O)Nc1ccc(F)c(C(F)(F)F)c1 (single isomer, unassigned) [Example 70] | 2.3
COc1ncc(C2=NOC3CC(C(N)=O)CC23)cc1C(=O)N[C@H]1[C@@H](C(=O)Nc2ccc(F)c(C(F)(F)F)c2)[C@H]2CC[C@@H]1/C2=C\C1CC1 (stereo partly drawn) [Example 66, 5-{5-carbamoyl-3aH,4H,5H,6H, 6aH-cyclopenta[d][1, 2]oxazol-3-yl}-N-[(1R,2R,3S, 4R,7Z)-7-(cyclopropylmethylidene)-3-{[4-fluoro-3-(trifluoromethyl)phenyl]carbamoyl}bicyclo[2.2.1]heptan-2-yl]-2-methoxypyridine-3-carboxamide] | 1.3
O=C(N[C@@H]1C2CCC(/C2=C/C2CC2)[C@@H]1C(=O)Nc1ccc(F)c(C(F)(F)F)c1)c1cncc(C2=NOC3COCC23)c1 (single isomer, unassigned) [Example 63] | 120
COc1nn(C)cc1C(=O)N[C@@H]1C2CCC(/C2=C/C(F)(F)F)[C@@H]1C(=O)Nc1ccc(F)c(C(F)(F)F)c1 (stereo partly drawn) [Example 12, N-[(2R,3S,7Z)-3-{[4-fluoro-3-(trifluoromethyl)phenyl]carbamoyl}-7-(2,2,2-trifluoroethylidene)bicyclo[2.2.1]heptan-2-yl]-3-methoxy-1-methyl-1H-pyrazole-4-carboxamide] | 4600
COc1ncc(C(=O)N2CC(O)C2)cc1C(=O)N[C@H]1[C@@H](C(=O)Nc2ccc(F)c(C(F)(F)F)c2)[C@H]2CC[C@@H]1/C2=C\C1CC1 [Example 75, N-[(1R,2R,3S, 4R,7Z)-7-(cyclopropyl-methylidene)-3-{[4-fluoro-3-(trifluoromethyl)phenyl]carbamoyl}bicyclo[2.2.1]heptan-2-yl]-5-(3-hydroxyazetidine-1-carbonyl)-2-methoxypyridine-3-carboxamide] | 8.1

Results, then the molecule that gave them:

EC50 [nM] | Structure (SMILES)
3.5 | COc1ncc(C(=O)N2CC(S(C)(=O)=O)C2)cc1C(=O)N[C@H]1[C@@H](C(=O)N[C@H](C)C2(C)CC2)[C@H]2CC[C@@H]1/C2=C\C1CC1 [Example 151, N-[(1R,2R,4R,7Z)-7-(cyclopropyl-methylidene)-3-{[(1R)-1-(1-methylcyclopropyl)ethyl]carbamoyl}bicyclo[2.2.1]heptan-2-yl]-5-(3-methanesulfonylazetidine-1-carbonyl)-2-methoxypyridine-3-carboxamide]
1.3 | CC1Cc2cc(C3=NOC4CC(O)(C(F)(F)F)CC34)cc(C(=O)N[C@H]3[C@@H](C(=O)Nc4ccc(F)c(C(F)(F)F)c4)[C@H]4CC[C@@H]3/C4=C\C3CCCC3)c2O1 (stereo partly drawn) [Example 156, N-[(1R,2R,3S,4R, 7Z)-7-(cyclopentyl-methylidene)-3-{[4-fluoro-3-(trifluoromethyl)phenyl]carbamoyl}bicyclo[2.2.1]heptan-2-yl]-5-[5-hydroxy-5-(trifluoromethyl) 3aH,4H,5H,6H, 6aH-cyclopenta[d][1,2]oxazol-3-yl]-2-methyl-2,3-dihydro-1-benzofuran-7-carboxamide]
1700 | COc1cc2c(cc1C(=O)N[C@@H]1C3CCC(/C3=C/C3CC3)[C@@H]1C(=O)Nc1ccc(F)c(C(F)(F)F)c1)CCN(S(C)(=O)=O)C2 (some centres unmarked) [Example 93]
9 | CC1Cc2cc(C3=NOC4CC(CO)CC34)cc(C(=O)N[C@@H]3C4CCC(/C4=C/C4CC4)[C@@H]3C(=O)N[C@H](C)C3(C)CC3)c2O1 (some centres unmarked) [Example 152]
3.9 | COc1ncc(C2=NOC3COCC23)cc1C(=O)N[C@H]1[C@@H](C(=O)N[C@H](C)C2(C)CC2)[C@H]2CC[C@@H]1/C2=C\c1csc(C(F)(F)F)n1 (stereo partly drawn) [Example 119, 2-methoxy-N-((1R,2R,3S,4R,Z)-3-(((R)-1-(1-methylcyclopropyl)ethyl)carbamoyl)-7-((2-(trifluoromethyl)thiazol-4-yl)methylene)bicyclo[2.2.1]heptan-2-yl)-5-(3a,4,6,6a-tetrahydrofuro[3,4-d]isoxazol-3-yl)nicotinamide]
2 | CC1(C)Cc2cc(C3=NOC4CC(CO)CC34)cc(C(=O)N[C@@H]3C4CCC(/C4=C/C4CC4)[C@@H]3C(=O)Nc3ccc(F)c(C(F)(F)F)c3)c2O1 (some centres unmarked) [Example 144]
2.5 | COc1ncc(C2=NOC3COCC23)cc1C(=O)N[C@H]1[C@@H](C(=O)Nc2ccc(F)c(C(F)(F)F)c2)[C@H]2CC[C@@H]1/C2=C\C1CCCC1 (stereo partly drawn) [Example 136, N-((1R,2R,3S,4R,Z)-7-(cyclopentyl-methylene)-3-((4-fluoro-3-(trifluoromethyl)phenyl)carbamoyl)bicyclo[2.2.1]heptan-2-yl)-2-methoxy-5-(3a,4,6,6a-tetrahydrofuro[3,4-d]isoxazol-3-yl)nicotinamide]
3.4 | COc1ncc(-c2cnc3n2CC(O)CC3)cc1C(=O)N[C@H]1[C@@H](C(=O)Nc2ccc(F)c(C(F)(F)F)c2)[C@H]2CC[C@@H]1/C2=C\C1CC1 (stereo partly drawn) [Example 103, N-((1R,2R,3S,4R,Z)-7-(cyclopropyl-methylene)-3-((4-fluoro-3-(trifluoromethyl)phenyl)carbamoyl)bicyclo[2.2.1]heptan-2-yl)-5-(6-hydroxy-5,6,7,8-tetrahydroimidazo [1,2-a]pyridin-3-yl)-2-methoxynicotinamide]
2.7 | COc1ncc(C(=O)NCC2(S(C)(=O)=O)CC2)cc1C(=O)N[C@H]1[C@@H](C(=O)N[C@H](C)C2(C)CC2)[C@H]2CC[C@@H]1/C2=C\C1CC1 [Example 149, N3-[(1R,2R,3S,4R, 7Z)-7-(cyclopropyl-methylidene)-3-{[(1R)-1-(1-methylcyclopropyl)ethyl]carbamoyl}bicyclo[2.2.1]heptan-2-yl]-N5-[(1-methanesulfonylcyclopropyl)methyl]-2-methoxypyridine-3,5-dicarboxamide]
